{"source": "ChEMBL document CHEMBL3853328", "about": "“A molecular dynamics simulation investigation of the relative stability of the cyclic peptide octreotide and its deprotonated and its (CF3)-Trp substituted analogs in different solvents” (Bioorg Med Chem, 2016)", "biological_target": "Somatostatin receptor type 2 (Homo sapiens, UniProt P30874)", "sequence (P30874 whole entry)": "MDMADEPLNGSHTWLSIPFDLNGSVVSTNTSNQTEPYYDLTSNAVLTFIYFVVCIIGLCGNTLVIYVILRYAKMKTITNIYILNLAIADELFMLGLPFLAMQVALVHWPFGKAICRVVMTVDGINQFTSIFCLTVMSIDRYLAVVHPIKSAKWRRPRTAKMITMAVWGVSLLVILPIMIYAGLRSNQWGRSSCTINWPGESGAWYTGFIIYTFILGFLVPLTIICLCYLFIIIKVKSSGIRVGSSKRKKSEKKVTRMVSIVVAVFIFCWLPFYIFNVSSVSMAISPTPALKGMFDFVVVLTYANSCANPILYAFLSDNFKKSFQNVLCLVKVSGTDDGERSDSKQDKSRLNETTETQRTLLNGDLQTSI", "assay": "Binding affinity to human SST2 receptor", "data": [{"smiles": "C[C@@H](O)[C@H](CO)NC(=O)[C@@H]1CSSC[C@H](NC(=O)[C@H](N)Cc2ccccc2)C(=O)N[C@@H](Cc2ccccc2)C(=O)N[C@H](Cc2c(C(F)(F)F)[nH]c3ccccc23)C(=O)N[C@@H](CCCCN)C(=O)N[C@@H]([C@@H](C)O)C(=O)N1", "values": [{"measurement": "Kd", "value": 0.0155, "unit": "µM"}]}]}
